Measured values published in patent US8809345B2, “6-cycloalkyl-pyrazolopyrimidinones for the treatment of CNS disorders” (Boehringer Ingelheim International GmbH, priority 2011, dated 2014).

What was measured:
human PDE9A2 = molecular target: T1, human PDE9A2 (Homo sapiens, UniProt O76083); test: PDE9A2 enzymatic activity assay (scintillation proximity assay); type: biochemical; conditions: SPA, lysate of SF9 cells expressing human PDE9A2, 20 nanomolar cGMP
T1 construct: made in house; host or cells: Sf9 insect cells (crude lysate, not purified)
T1 sequence (O76083 1-533 isoform O76083-2): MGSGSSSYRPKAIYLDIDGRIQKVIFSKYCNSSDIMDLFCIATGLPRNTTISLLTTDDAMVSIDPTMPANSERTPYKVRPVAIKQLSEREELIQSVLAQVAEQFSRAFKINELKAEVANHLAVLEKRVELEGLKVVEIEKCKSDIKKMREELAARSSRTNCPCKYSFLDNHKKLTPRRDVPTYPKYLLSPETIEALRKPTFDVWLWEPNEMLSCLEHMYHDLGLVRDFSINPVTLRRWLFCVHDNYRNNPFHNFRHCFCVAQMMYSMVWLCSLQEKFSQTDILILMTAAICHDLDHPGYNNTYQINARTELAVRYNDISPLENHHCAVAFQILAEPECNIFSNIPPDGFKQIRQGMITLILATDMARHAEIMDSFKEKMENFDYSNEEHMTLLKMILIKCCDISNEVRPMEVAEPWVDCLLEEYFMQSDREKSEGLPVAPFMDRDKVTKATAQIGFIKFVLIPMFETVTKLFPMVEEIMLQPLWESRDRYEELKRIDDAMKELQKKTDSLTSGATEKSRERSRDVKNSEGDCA
Description: The total protein amount included in the assay varied upon infection and production efficacy of the SF9 cells and lay in the range of 0.1-100 ng.
The assays were run in 384-well format. The test reagents as well as the enzyme and the substrate were diluted in assay buffer. The assay buffer contained 50 mM Tris, 8.3 mM MgCl2, 1.7 mM EGTA, 0.1% BSA, 0.05% Tween 20; the pH of assay buffer was adjusted to 7.5.
(§1) IC50 can be calculated with GraphPadPrism or other suitable software setting the positive control as 100 and the negative control as 0. For calculation of IC50, dilutions of the test compounds […] are selected and tested following the aforementioned protocol.

PDE1C = PDE1C (Homo sapiens, UniProt Q14123); test: PDE1C assay, run analogously to the PDE9A2 assay; type: biochemical; conditions: ratio PDE1C vs PDE9A2
Excerpt: The reaction can be stopped by applying the same inhibitor as the one that is outlined above (1-(2-Chlorophenyl)-6-[(2R)-3,3,3-trifluoro-2-methyl-propyl]-1,5-dihydro-4H-pyrazolo[3,4-d]pyrimidine-4-one).
as §1
Selectivity is the ratio (IC50 for PDE1C inhibition [nanomolar (nM)])/(IC50 for PDE9A2 inhibition [nanomolar (nM)]).

human PDE9A = human PDE9A (Homo sapiens, UniProt O76083); conditions: isolated enzyme, concentrations of up to 100 micromolar (μM); cited from earlier work
human PDE9A, sequence (O76083 whole entry): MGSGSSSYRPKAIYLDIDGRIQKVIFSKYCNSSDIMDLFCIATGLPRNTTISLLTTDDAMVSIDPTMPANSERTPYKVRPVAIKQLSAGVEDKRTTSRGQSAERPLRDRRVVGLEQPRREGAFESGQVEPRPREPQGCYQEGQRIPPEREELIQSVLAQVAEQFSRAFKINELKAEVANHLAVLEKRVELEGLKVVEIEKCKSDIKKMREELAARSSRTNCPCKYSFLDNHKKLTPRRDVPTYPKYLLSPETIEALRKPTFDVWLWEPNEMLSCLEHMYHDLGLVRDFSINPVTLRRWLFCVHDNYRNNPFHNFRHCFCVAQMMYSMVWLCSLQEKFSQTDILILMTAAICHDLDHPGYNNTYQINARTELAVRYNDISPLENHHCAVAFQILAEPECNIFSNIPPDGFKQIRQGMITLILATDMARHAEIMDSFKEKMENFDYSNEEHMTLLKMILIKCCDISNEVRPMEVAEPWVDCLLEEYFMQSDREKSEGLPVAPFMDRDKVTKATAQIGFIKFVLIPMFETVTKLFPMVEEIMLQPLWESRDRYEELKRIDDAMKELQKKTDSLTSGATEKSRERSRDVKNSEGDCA

Murine PDE9A = molecular target: T2, Murine PDE9A (Mus musculus, UniProt O70628); conditions: concentrations below 200 micromolar; cited from earlier work
T2 sequence (O70628 1-534): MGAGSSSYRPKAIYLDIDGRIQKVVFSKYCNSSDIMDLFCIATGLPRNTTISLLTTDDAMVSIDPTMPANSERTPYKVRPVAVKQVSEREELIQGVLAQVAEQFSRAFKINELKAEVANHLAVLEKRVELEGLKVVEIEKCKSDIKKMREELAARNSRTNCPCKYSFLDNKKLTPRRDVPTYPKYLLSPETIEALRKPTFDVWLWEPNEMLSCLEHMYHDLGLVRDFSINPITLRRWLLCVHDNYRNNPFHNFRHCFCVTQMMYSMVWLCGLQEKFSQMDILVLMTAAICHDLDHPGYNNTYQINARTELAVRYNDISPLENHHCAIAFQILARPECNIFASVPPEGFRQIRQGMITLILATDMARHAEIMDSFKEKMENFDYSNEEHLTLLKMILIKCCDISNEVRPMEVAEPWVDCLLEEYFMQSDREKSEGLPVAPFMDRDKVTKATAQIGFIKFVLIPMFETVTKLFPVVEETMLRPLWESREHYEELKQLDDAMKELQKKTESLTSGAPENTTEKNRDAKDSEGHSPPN

Structure (SMILES)	IC50 (human PDE9A2) [nM]	Selectivity (IC50 for PDE1C inhibition / IC50 for PDE9A2 inhibition) (PDE1C)	inhibition of human PDE9A (human PDE9A)	inhibition of murine PDE9A (Murine PDE9A)
O=c1[nH]c([C@@H]2CC[C@H]2c2cn3ccccc3n2)nc2c1cnn2C1CCC(F)(F)CC1 (racemic) [Example 4]	6	123	–	–
O=c1[nH]c([C@@H]2CC[C@H]2c2cn3ccc(Cl)cc3n2)nc2c1cnn2C1CCC(F)(F)CC1 (racemic) [Example 5]	10	40	–	–
CC(C)Cn1c(=O)n(C)c(=O)c2[nH]cnc21 [IBMX]	–	–	no inhibition	not inhibited
CC(=O)Nc1ccc(-c2c[nH]c(=O)cn2)cc1 [SKF94120]	–	–	no inhibition	–
OCCN(CCO)c1nc(N2CCCCC2)c2nc(N(CCO)CCO)nc(N3CCCCC3)c2n1 [dipyridamole]	–	–	no inhibition	–
COc1ccc(C2CNC(=O)C2)cc1OC1CCCC1 (stereo not shown) [rolipram]	–	–	no inhibition	–
CCOC(=O)C1=C[C@]2(CC)CCCN3CCc4c(n1c1ccccc41)[C@@H]32 [vinpocetine]	–	–	no inhibition	–
